Measured values: ChEMBL document CHEMBL1157687, “Inhibitory activity of Brazilian green propolis components and their derivatives on the release of cys-leukotrienes” (Bioorg Med Chem, 2010)
In brackets after ≈: the same amount, converted by molar mass.

Test system: HL-60 (Homo sapiens)
Assay: Antiallergic activity in Ca(2+)-stimulated differentiated human HL-60 cells assessed as inhibition of cys-leukotriene release after 6 days by ELISA
Details: HL-60, 144 h

IC50 [µg/mL]	SMILES
0.094 (≈ 0.232 µM)	CC(C)=CCc1cc(/C=C/C(=O)OCCc2ccccc2)cc(CC=C(C)C)c1O [ARTEPILLIN C PHENETHYL ESTER]
7 (≈ 23.3 µM)	CC(C)=CCc1cc(/C=C/C(=O)O)cc(CC=C(C)C)c1O [ARTEPILLIN]
> 10	CC(C)=CCc1cc(/C=C/C(=O)OCCc2ccccc2)ccc1OC(=O)CCc1ccccc1 [BACCHARIN PHENETHYL ESTER]
0.068 (≈ 0.239 µM)	O=C(/C=C/c1ccc(O)c(O)c1)OCCc1ccccc1 [CAFFEIC ACID PHENETHYL ESTER]
44 (≈ 244 µM)	O=C(O)/C=C/c1ccc(O)c(O)c1 [CAFFEIC ACID]
> 10	CC(C)=CCc1cc(/C=C/C(=O)OCCc2ccccc2)cc2c1OC(C)(C)C=C2 [CULIFOLIN PHENETHYL ESTER]
1.6 (≈ 5.36 µM)	CC(C)=CCc1cc(/C=C/C(=O)O)cc2c1OC(C)(C)C=C2 [CULIFOLIN]
0.2 (≈ 0.594 µM)	CC(C)=CCc1cc(/C=C/C(=O)OCCc2ccccc2)ccc1O [DRUPANIN PHENETHYL ESTER]
10.3 (≈ 44.3 µM)	CC(C)=CCc1cc(/C=C/C(=O)O)ccc1O [DRUPANIN]
2 (≈ 6.66 µM)	COc1ccc(-c2oc3cc(O)cc(O)c3c(=O)c2O)cc1 [KAEMPFERIDE]
2.4 (≈ 8.38 µM)	O=c1c(O)c(-c2ccc(O)cc2)oc2cc(O)cc(O)c12 [KAEMPFEROL]
0.08 (≈ 0.265 µM)	CC(Cc1ccc(O)c(O)c1)C(C)Cc1ccc(O)c(O)c1 (centres undefined) [NORDIHYDROGUAIARETIC ACID]
6.1 (≈ 23.8 µM)	O=C1C[C@@H](c2ccccc2)Oc2cc(O)cc(O)c21 [PINOCEMBRIN]
0.04 (≈ 0.169 µM)	CC(c1cc2ccccc2s1)N(O)C(N)=O (centres undefined) [ZILEUTON]
